Structures are written as SMILES. Counter-ions that a name gives are not always drawn.

In this assay the target is T1, succinate dehydrogenase (Homo sapiens, UniProt P31040).
T1 construct: Fibroblasts [0.75 m Val/I]; endogenous in cells
Put plainly: Stimulating influence of fumaric acid derivatives on the enzyme activity of succinate dehydrogenase in fibroblasts. As to conditions: Fibroblasts [0.75 m Val/I]. Format: cell-based. An excerpt: Succinate dehydrogenase is part of the mitochondrial membrane and catalyses the […] of succinic acid to fumaric acid within the citrate cycle. Hydrogen is passed to the respiratory chain via the electron transfer flavoprotein. Thus, the activity of succinate dehydrogenase may influence the electron flow of the electron transport chain. The latter, in turn, is linked to the process of oxidative phosphorylation, the malfunction of which is considered a cause for mitochondrial diseases. Consequently, the activity of succinate dehydrogenase may also have an effect on oxidative phosphorylation.

T1 sequence (P31040 43-664): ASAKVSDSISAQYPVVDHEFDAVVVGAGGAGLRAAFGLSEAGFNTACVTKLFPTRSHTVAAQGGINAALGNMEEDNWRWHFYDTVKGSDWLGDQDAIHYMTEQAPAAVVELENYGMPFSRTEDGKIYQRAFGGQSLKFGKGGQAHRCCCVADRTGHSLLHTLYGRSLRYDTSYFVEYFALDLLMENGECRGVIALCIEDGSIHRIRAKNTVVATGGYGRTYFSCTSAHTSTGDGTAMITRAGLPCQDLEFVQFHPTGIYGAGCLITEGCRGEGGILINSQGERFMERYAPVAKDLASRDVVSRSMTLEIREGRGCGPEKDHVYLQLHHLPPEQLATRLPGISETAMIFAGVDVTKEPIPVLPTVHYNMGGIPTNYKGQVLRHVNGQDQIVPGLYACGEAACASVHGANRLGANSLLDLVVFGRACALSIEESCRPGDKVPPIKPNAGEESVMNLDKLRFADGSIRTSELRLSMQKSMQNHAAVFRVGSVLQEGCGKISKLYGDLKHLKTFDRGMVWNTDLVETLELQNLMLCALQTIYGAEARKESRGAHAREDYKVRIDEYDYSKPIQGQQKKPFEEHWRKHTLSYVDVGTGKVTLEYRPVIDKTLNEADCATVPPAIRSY
T1 sequence (P21912 29-280 partner): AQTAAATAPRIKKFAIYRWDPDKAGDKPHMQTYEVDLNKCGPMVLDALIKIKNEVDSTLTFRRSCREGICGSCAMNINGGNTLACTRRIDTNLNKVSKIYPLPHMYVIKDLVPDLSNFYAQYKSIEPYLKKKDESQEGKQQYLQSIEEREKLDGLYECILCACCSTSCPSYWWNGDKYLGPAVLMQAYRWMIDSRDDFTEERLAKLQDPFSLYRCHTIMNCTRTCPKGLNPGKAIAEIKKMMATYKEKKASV
T1 sequence (Q99643 30-169 partner): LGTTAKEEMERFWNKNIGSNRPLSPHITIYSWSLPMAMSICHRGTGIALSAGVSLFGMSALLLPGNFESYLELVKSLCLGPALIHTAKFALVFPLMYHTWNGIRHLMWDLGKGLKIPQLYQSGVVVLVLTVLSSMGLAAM
T1 sequence (O14521 57-159 partner): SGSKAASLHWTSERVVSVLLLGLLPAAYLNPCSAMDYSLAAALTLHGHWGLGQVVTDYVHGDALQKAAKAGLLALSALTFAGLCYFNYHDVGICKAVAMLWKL

Take `CCOC(=O)/C=C/C(=O)[O-].[Ca+]` [Calcium monoethyl fumarate]: the “evaluation of the stimulating influence on the enzyme activity of succinate dehydrogenase (grade in words)” value (“evaluation of the stimulating influence” for short) is listed as “medium”.
Regarding `CCOC(=O)/C=C/C(=O)[O-].[Zn+]` [Zinc monoethyl fumarate], the “evaluation of the stimulating influence” value is on record as “strong” and the “stimulation of the enzyme activity of succinate dehydrogenase (percent in brackets)” value was determined as 107%.
`CCOC(=O)/C=C/C(=O)[O-].[Mg+]` [Magnesium monoethyl fumarate]: the “evaluation of the stimulating influence” value was “weak”.
As for `COC(=O)/C=C/C(=O)OC` [Dimethyl fumarate], the “evaluation of the stimulating influence” value is reported as “strong” and the “stimulation of the enzyme activity of succinate dehydrogenase (percent in brackets)” value was 838%.
Turning to `CCOC(=O)/C=C/C(=O)O` [Monoethyl fumarate], the “evaluation of the stimulating influence” value is recorded as “weak”.

Values taken from patent publication US20030013761A1, “Use of fumaric acid derivatives for treating mitochondrial diseases” (priority 2000, published 2003).
